Reference: article PMC10470178, “Long-acting lenacapavir protects macaques against intravenous challenge with simian-tropic HIV” (eBioMedicine, 2023)
Like-named read-outs stand apart in the source and are kept apart here.

Assay: Pharmacokinetics of subcutaneous LEN in pigtail macaques
Type: in vivo, pigtail macaques (Macaca nemestrina)
Conditions: for range of peak plasma LEN concentration after second dose / mean peak plasma LEN concentration after first dose / range of peak plasma LEN concentration after first dose: N = 3; for time mean plasma drug concentrations above the PA-EC95: two doses 6 weeks apart; for half-life: sc
Description: Sixteen male, purpose-bred pigtail macaques (Macaca nemestrina; ages 4.6–8.5 years at the time of study initiation) were housed at NIH-Bethesda (Supplementary Table S1). All study animals received enrofloxacin (10 mg/kg, administered orally, once per day for 10 days), paromomycin (25 mg/kg, administered orally, twice daily for 7–10 days), and fenbendazole (50 mg/kg administered orally, once per day for 5 days) two weeks to 43 months prior to study initiation. Lenacapavir or drug vehicle (sterile, preservative-free 57.5% w/v polyethylene glycol 300 in water) doses were administered to sedated animals via SC injection into the scapular region such that no more than 2 ml of solution was injected into a single SC site. Animals in the LEN pharmacokinetic evaluation study (N = 6) each received two doses of LEN, both at 15 mg/kg (N = 3) or at 50 mg/kg (N = 3), 6 weeks apart. Animals in the virus challenge experiment each received a single dose of LEN at 25 mg/kg (N = 3, LEN PrEP group) or drug vehicle (N = 4, vehicle control group) 30 days prior to stHIV-A19 challenge, or a cART regimen consisting of tenofovir disoproxil fumarate (TDF), emtricitabine (FTC), and dolutegravir (DTG) (N = 3, TDF/FTC/DTG group), coformulated and administered as previously described[29]^,[30] for 7 days beginning 3 days prior to stHIV-A19 challenge (Supplementary Figure S1). Hair was clipped and skin marked at LEN and vehicle injection sites to allow for subsequent visual and manual assessment and scoring of potential ISRs by non-blinded veterinary care staff. Complete blood counts (CBC) and serum chemistries were monitored prior to and at 2- to 4-week intervals after LEN administration for at least one year. Following the first dose of LEN in the PK study, one animal in the 50-mg/kg dosing group received 7 consecutive days of daily ketoprofen (2 mg/kg) administered intramuscularly for ISR analgesia at veterinary discretion. For the second dose of LEN in the PK study, all animals in the 50-mg/kg dosing group received 5–7 consecutive days of twice daily oral carprofen (2 mg/kg) analgesia administered prophylactically starting on the day of LEN dosing. In the IV challenge PrEP study, all LEN and vehicle control animals received 3–5 consecutive days of twice daily oral carprofen (2 mg/kg) analgesia administered prophylactically starting on the day of injection. For virus challenge, PrEP study animals each received 1 × 10^5 infectious units of stHIV-A19 injected intravenously. After LEN washout, LEN PrEP group animals received a single 50-mg/kg dose of rhesusized depleting anti-CD8α antibody (MT807R1, RRID: AB_2716320, NIH Nonhuman Primate Reagent Resource), administered SC to anesthetized animals.
Whole blood was collected in EDTA Vacutainer Tubes (BD) from sedated animals. Plasma for vRNA quantification, LEN concentration determination, and HIV-1 Western blot analysis was separated from whole blood and clarified by centrifugation, and then stored at −80 °C. Following plasma separation, the blood cellular component was resuspended in an equivalent volume of PBS and then PBMCs were isolated by Ficoll-Paque Plus (GE Healthcare) gradient centrifugation. Portions of isolated PBMC samples were cryopreserved as dry cell pellets for CA-vDNA quantification.
Pigtail macaque plasma samples stored frozen at −80 °C were thawed, and a 50 μl aliquot of each was treated with 200 μl acetonitrile containing a generic internal small-molecule standard. After precipitation of the protein component, a 150 μl aliquot of the supernatant was transferred to a clean 96-well plate and evaporated to dryness under a nitrogen stream. The samples were reconstituted with 100 μL of 50% acetonitrile and then injected into an API-6500+ QTRAP triple quadrupole mass spectrometer (SciEx) with electrospray ionization in positive mode. […]

[1] = 15 mg/kg SC on Study Day 0 and 42, PTM, N = 3, mean ± SD
[2] = 25 mg/kg single SC dose on Study Day 0, PTM, N = 3, mean ± SD
[3] = 25 mg/kg single SC dose, all three animals
[4] = 50 mg/kg SC on Study Day 0 and 42, PTM, N = 3, mean ± SD

CC(C)(C#Cc1ccc(-c2ccc(Cl)c3c(NS(C)(=O)=O)nn(CC(F)(F)F)c23)c([C@H](Cc2cc(F)cc(F)c2)NC(=O)Cn2nc(C(F)(F)F)c3c2C(F)(F)[C@@H]2C[C@H]32)n1)S(C)(=O)=O [LEN, Lenacapavir]
range of peak plasma LEN concentration after second dose (15 mg/kg SC on Study Day 0 and 42, PTM): 57 to 77 nM | AUCinf [1]: 80.9 ± 2.5 μM∗h | AUClast [1]: 80.7 ± 2.5 μM∗h | Cmax (15 mg/kg SC on Study Day 0 and 42, PTM, N = 3, mean ± SD, read-out: Cmax (mean peak plasma concentration after second dose)): 67.8 ± 10.1 nM | mean peak plasma LEN concentration after first dose (15 mg/kg SC, PTM): 16 nM | range of peak plasma LEN concentration after first dose (15 mg/kg SC, PTM): 10 to 28 nM | time mean plasma drug concentrations above the PA-EC95 (15 mg/kg SC, PTM): > 189 days | AUCinf [2]: 92.0 ± 17.8 μM∗h | AUClast [2]: 91.3 ± 17.8 μM∗h | plasma LEN concentration at time of stHIV-A19 challenge relative to PA-EC95 (25 mg/kg single SC dose, 30 days after dosing, all 3 animals): > 5 fold | plasma LEN at 419 days post-challenge (25 mg/kg single SC dose, LEN PrEP animals): no longer detected in plasma | time plasma LEN concentrations remaining above the PA-EC95 [3]: > 200 days | time plasma LEN remaining above the lower limit of quantitation (LLOQ, 0.1 nM) [3]: more than one year | range of peak plasma LEN concentration after second dose (50 mg/kg SC on Study Day 0 and 42, PTM): 234 to 350 nM | AUCinf [4]: 408 ± 106 μM∗h | AUClast [4]: 408 ± 106 μM∗h | mean peak plasma LEN concentration after first dose (50 mg/kg SC, PTM): 95 nM | range of peak plasma LEN concentration after first dose (50 mg/kg SC, PTM): 48 to 120 nM | time mean plasma drug concentrations above the PA-EC95 (50 mg/kg SC, PTM): > 245 days | half-life (male, monkey, in vivo, 15 mg/kg, 15 mg/kg SC on Study Day 0 and 42, PTM, N = 3, mean ± SD, read-out: t1/2 (converted)): 42.1 ± 28.2 days | half-life (male, monkey, in vivo, 15 mg/kg, 15 mg/kg SC, after second dose, PTM, read-out: mean terminal half-life (t1/2) (converted)): 42 days | half-life (male, monkey, in vivo, 25 mg/kg, 25 mg/kg single SC dose on Study Day 0, PTM, N = 3, mean ± SD, read-out: t1/2 (converted)): 38.5 ± 14.2 days | half-life (male, monkey, in vivo, 50 mg/kg, 50 mg/kg SC on Study Day 0 and 42, PTM, N = 3, mean ± SD, read-out: t1/2 (converted)): 48.3 ± 5.83 days | half-life (male, monkey, in vivo, 50 mg/kg, 50 mg/kg SC, after second dose, PTM, read-out: mean terminal half-life (t1/2) (converted)): 48 days | Cmax (male, monkey, plasma, Cmax (mean peak plasma concentration after second dose), 15 mg/kg SC on Study Day 0 and 42, PTM, N = 3, mean ± SD, read-out: Cmax (mean peak plasma concentration after second dose)): 68 nM | Cmax (male, monkey, plasma, Cmax (mean peak plasma concentration after second dose), 50 mg/kg SC on Study Day 0 and 42, PTM, N = 3, mean ± SD, read-out: Cmax (mean peak plasma concentration after second dose)): 295 ± 58 nM | Cmax (male, monkey, plasma, Cmax, 25 mg/kg single SC dose on Study Day 0, PTM, N = 3, mean ± SD, read-out: Cmax): 47 ± 5.7 nM | half-life (male, pigtail macaque, in vivo, 25 mg/kg, 25 mg/kg single SC dose, PTM, read-out: mean t1/2 (converted)): 38.5 days | concentration at 30 days (male, pigtail macaque, in vivo, 25 mg/kg single SC dose, 30 days after dosing, range of 3 animals, read-out: plasma LEN concentrations at the time of stHIV-A19 challenge): 8.6 to 51.2 nM
